Source: ChEMBL document CHEMBL1201862, “PubChem BioAssay data set” (2004)
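Cells were grown in 96-well plates and exposed to each compound for 48 hours at five concentrations; endpoints were interpolated linearly between bracketing concentrations, or set to the highest concentration if not reached. GI50: concentration for 50% inhibition of growth.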 Active and inactive are the calls of the source. Cut-off read from the data, not from the text of the source: active = GI50 up to about 1.1 µM and inactive = higher.

Key:
Assay in all cases: NCI-60 cell line screen, 48 h
[1] = tested on: DLD-1
[2] = tested on: M19-MEL
[3] = tested on: KM-20L2
[4] = tested on: SNB-78
[5] = tested on: DMS-273
[6] = tested on: DMS-114
[7] = tested on: XF498
[8] = tested on: T47D
[9] = tested on: RXF 631

NC(=O)CCC(NC(=O)C(F)(F)F)C(=O)O (stereo not drawn)
GI50 [1]: > 100 µM (inactive) | GI50 [2]: > 100 µM (inactive) | GI50 [3]: > 100 µM (inactive) | GI50 [4]: > 100 µM (inactive) | GI50 [5]: > 100 µM (inactive) | GI50 [6]: > 100 µM (inactive) | GI50 [7]: > 100 µM (inactive)

c1ccc([P+](CCCCCC[P+](c2ccccc2)(c2ccccc2)c2ccccc2)(c2ccccc2)c2ccccc2)cc1
GI50 [8]: 4.92 µM (inactive)

C1CCCCC2(CCCCCCCCC3(CCC1)OCCO3)OCCO2
GI50 [8]: > 100 µM (inactive)

COc1ccc(C(=O)CC(c2ccc(OC)c(OC)c2)c2c(O)oc3ccccc3c2=O)cc1OC (stereo not drawn)
GI50 [8]: > 100 µM (inactive)

c1cnc2c(c1)-n1cccc1C1(CCSCC1)NN2
GI50 [2]: 48.5 µM (inactive) | GI50 [5]: > 100 µM (inactive) | GI50 [7]: > 100 µM (inactive)

CC(=O)OCC12CN(C#N)C3C4COC(CC41)C1(C(=O)N(C)c4ccccc41)C32 (stereo not drawn)
GI50 [8]: 18.8 µM (inactive)

CC(=O)NC1C(OCc2ccccc2)OC(CO)C(O)C1OCC(=O)NC(C)C(=O)NC(CCC(=O)OCCNC(=O)c1cccc2cc3ccccc3nc12)C(N)=O (stereo not drawn)
GI50 [8]: 22.5 µM (inactive)

CCOC(=O)COc1ccc(OCC(=O)OCC)c2c1C(=O)CCCC2=O
GI50 [1]: > 100 µM (inactive) | GI50 [2]: > 100 µM (inactive) | GI50 [3]: > 100 µM (inactive) | GI50 [5]: > 100 µM (inactive) | GI50 [6]: > 100 µM (inactive) | GI50 [7]: > 100 µM (inactive)

COc1ccc(N2C(=O)C3c4[nH]c5ccccc5c4C4CC(C)(C)CC(C)(C)C4C3C2=O)cc1 (stereo not drawn)
GI50 [1]: 27 µM (inactive) | GI50 [2]: 15.1 µM (inactive) | GI50 [3]: 29.3 µM (inactive) | GI50 [4]: 21.4 µM (inactive) | GI50 [5]: 11 µM (inactive) | GI50 [6]: 27.2 µM (inactive) | GI50 [7]: 17.6 µM (inactive)

N[C@@H](Cc1ccc2oc3cc(=O)c4ccccc4c-3nc2c1)C(=O)O
GI50 [8]: > 100 µM (inactive)

C=C(C)C1CC2(C)C(C)CC(O)CC2C(OC(=O)C=C(C)C)C1O (stereo not drawn)
GI50 [8]: 31.8 µM (inactive)

CCCCCCCCCCCCCC(=O)O.O=CC(O)C(O)C(OC1OC(CO)C(O)C(O)C1O)C(O)CO (stereo not drawn)
GI50 [8]: > 100 µM (inactive)

Cc1ccc(/C=C2\CN(C)CC3C(c4ccc(C)cc4)=C(C#N)C(=O)NC23)cc1 (stereo not drawn)
GI50 [8]: > 50 µM (inactive)

Fc1ccc(C2(CCCN3CCc4[nH]c5cc(F)ccc5c4C3)OCCO2)cc1
GI50 [8]: 13.5 µM (inactive)

CC(=O)C1=NN(c2ccccc2)C2(S1)SC(c1ccccc1)(c1ccccc1)c1ccccc12 (stereo not drawn)
GI50 [1]: 61.4 µM (inactive) | GI50 [2]: 47.8 µM (inactive) | GI50 [3]: > 100 µM (inactive) | GI50 [4]: 30.8 µM (inactive) | GI50 [5]: 17.6 µM (inactive) | GI50 [6]: 32.5 µM (inactive)

Cc1cccc(Br)[n+]1[O-]
GI50 [8]: > 100 µM (inactive)

CC1=CC[C@](C)(O)[C@@]2(C)CC[C@H]3C(=C(C)C)C(=O)C[C@]3(C)C[C@H]12
GI50 [8]: 28.9 µM (inactive)

O=C(O)C(=O)Cc1ccc2c(c1)OCO2
GI50 [8]: > 100 µM (inactive)

CC/C=C\C/C=C\C1CC(=O)NCCCNCCCCN1 (stereo not drawn)
GI50 [1]: > 100 µM (inactive) | GI50 [2]: > 100 µM (inactive) | GI50 [3]: > 100 µM (inactive) | GI50 [4]: > 100 µM (inactive) | GI50 [5]: > 100 µM (inactive) | GI50 [6]: > 100 µM (inactive)

CC(=O)c1ccccc1NC(=O)C(=O)C(C(=O)c1ccccc1-c1ccccc1)C1OC(=O)c2ccccc21 (stereo not drawn)
GI50 [1]: 23.1 µM (inactive) | GI50 [2]: 17.2 µM (inactive) | GI50 [3]: 26.6 µM (inactive) | GI50 [4]: 30.4 µM (inactive) | GI50 [5]: 31.9 µM (inactive) | GI50 [9]: 50.6 µM (inactive) | GI50 [7]: 11.3 µM (inactive)

COC(=O)C1CCc2nnc(-c3cccnc3)n21 (stereo not drawn)
GI50 [1]: > 100 µM (inactive) | GI50 [2]: > 100 µM (inactive) | GI50 [3]: > 100 µM (inactive) | GI50 [4]: > 100 µM (inactive) | GI50 [5]: > 100 µM (inactive) | GI50 [9]: > 100 µM (inactive) | GI50 [6]: > 100 µM (inactive)

CN(C)CCCNc1ccc2nnn3c4ccc(OC(=O)c5ccccc5)cc4c(=O)c1c23
GI50 [8]: 18.7 µM (inactive)

Brc1ccc(C[P+]2(c3ccccc3)CCCCC2)cc1.[O-][Cl+3]([O-])([O-])[O-]
GI50 [1]: > 100 µM (inactive) | GI50 [2]: 25.4 µM (inactive) | GI50 [3]: 61.2 µM (inactive) | GI50 [4]: 25.2 µM (inactive) | GI50 [5]: 37.7 µM (inactive) | GI50 [6]: 39.5 µM (inactive) | GI50 [7]: < 0.01 µM (active)

Cc1cccc2c1CC(C1OC(=O)c3ccccc31)C2=O (stereo not drawn)
GI50 [8]: > 100 µM (inactive)

CCCCCCCCCCCC(=O)OCCOCCOCCOCCOCCOCc1ccccc1
GI50 [1]: > 100 µM (inactive) | GI50 [2]: > 100 µM (inactive) | GI50 [3]: > 100 µM (inactive) | GI50 [4]: > 100 µM (inactive) | GI50 [5]: > 100 µM (inactive) | GI50 [6]: > 100 µM (inactive)

C#CC(O)/C=C/C(O)CCCC(O)CC#CC(O)C#CC(O)CCCC(O)/C=C/CCCC(=O)CCCCCCCCCCCCCCCC(O)C(O)C#CC(=O)O (stereo not drawn)
GI50 [8]: > 50 µM (inactive)

Cc1ccn2c(CCc3nnc4cc(C)ccn34)nnc2c1
GI50 [8]: > 100 µM (inactive)

N=C(N)N/N=C/c1c(-c2ccccc2)nc2ccn3c(/C=N/N=C(N)N)c(-c4ccccc4)nc3n12
GI50 [8]: > 100 µM (inactive)

CC(C)(C)OC(=O)NC(Cc1ccc(OCc2ccccc2)cn1)C(=O)N1CCCCC1 (stereo not drawn)
GI50 [8]: 12.1 µM (inactive)

COc1cc(C2=C(c3cc(OC)c4ccccc4c3OC)C(=O)c3ccccc3C2=O)c(OC)c2ccccc12
GI50 [8]: > 100 µM (inactive)

Cc1ccc(N)c(S)c1
GI50 [8]: 14.8 µM (inactive)
